Measured values published in ChEMBL document CHEMBL1130832, “5-Alkyl-2-[(methylthiomethyl)thio]-6-(benzyl)-pyrimidin-4-(1H)-ones as potent non-nucleoside reverse transcriptase inhibitors of S-DABO series” (Bioorg Med Chem Lett, 1998).

Assays:
[1] = Compound was evaluated for inhibition of p24 production in HIV infected peripheral blood mononuclear cells; format: functional; settings: Homo sapiens
[2] = target: Human immunodeficiency virus type 1 reverse transcriptase (Human immunodeficiency virus 1, UniProt Q72547); assay: Compound was evaluated for enzymatic inhibitory activity against recombinant HIV reverse transcriptase
[3] = Compound was evaluated for cytotoxic activity against peripheral blood mononuclear cells using microculture tetrazolium assay; format: functional; settings: Homo sapiens

Row | SMILES | IC50 [1] [µM] | IC50 [2] [µM] | IC50 [3] [µM]
1 | CCc1c(O)nc(SCSC)nc1Cc1ccccc1 | 0.8 | 9.7 | > 100
2 | CSCSc1nc(O)c(C(C)C)c(Cc2ccccc2)n1 | < 0.001 | 6.1 | > 100
3 | CSCSc1nc(O)c(C)c(Cc2ccccc2)n1 | 4.5 | 18.8 | > 100
4 | CSCSc1nc(O)c(C(C)C)c(Cc2cc(C)cc(C)c2)n1 | 0.01 | 4.8 | > 100
5 | CCOCn1c(Cc2ccccc2)c(C(C)C)c(=O)[nH]c1=O [EMIVIRINE] | – | – | > 100
6 | Cc1cn([C@H]2C[C@H](N=[N+]=[N-])[C@@H](CO)O2)c(=O)[nH]c1=O [ZIDOVUDINE] | 0.004 | > 100 | 100
